Measurements taken from US20250109387A1, “SMOOTH MUSCLE CELLS SEEDED IN MICROCHANNELS WITHIN HYDROGELS TO FORM FUNCTIONAL MEDIAL LAYERS IN ENGINEERED MICROVASCULATURE” (VANDERBILT UNIVERSITY, priority 2023, published 2025).

Tested on: HASMCs
Test: Calcium imaging of HASMCs carrying GCaMP6f after ET-1 exposure
Type: cell-based, human
Settings: 500 nM endothelin-1; HASMCs cultured in flasks (2D) and in channels (3D); fluorescence microscopy
Protocol: Calcium imaging: HASMCs were infected with lentivirus carrying GCaMP6f and cultured in flasks (2D) and in channels (3D). Cells were then exposed to 500 nM endothelin-1 (ET-1, vasoconstrictor), and imaged via fluorescence microscopy (FIGS. 16A-16F).

endothelin-1 [ET-1]
intracellular Ca^2+ release (GCaMP6f fluorescence over time): substantial intracellular Ca^2+ release
